{"source": "patent US7629457B2", "about": "“Method for producing cytosine nucleoside compounds” (priority 2001, dated 2009)", "key": {"[1]": {"target": "T1, PNP (purine nucleoside phosphorylase) (Escherichia coli, UniProt P0ABP8)", "T1 construct": "expressed in transfected cells; host or cells: E. coli DH5alpha transformed with plasmid pUC-PNP73 (strain MT-10905), whole cell mass suspension", "T1 sequence (P0ABP8 2-239)": "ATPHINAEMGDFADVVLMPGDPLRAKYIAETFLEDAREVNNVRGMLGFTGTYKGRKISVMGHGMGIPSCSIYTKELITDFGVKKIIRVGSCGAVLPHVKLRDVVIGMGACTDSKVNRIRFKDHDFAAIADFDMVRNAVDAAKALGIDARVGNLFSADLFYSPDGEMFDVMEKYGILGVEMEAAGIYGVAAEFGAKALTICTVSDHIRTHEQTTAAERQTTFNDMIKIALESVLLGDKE", "assay": "PNP residual activity of MT-10905 cell mass suspension after processing with organic solvent", "format": "biochemical", "settings": "for PNP Activity: organic solvent 50%", "procedure": "The activity of PNP was analyzed after the cell mass suspension was added to 1.0 ml of the reaction solution consisting of 20 mM 2′-deoxyribose-1-phosphate di(monocyclohexylammonium) salt (produced by SIGMA), 5.4 mM adenine (produced by Wako Pure Chemicals, guaranteed grade) and 100 mM tris hydrochloride buffer (pH 8.0), and then treated at 50° C. or 15 minutes. The above reaction was conducted using such an amount of the cell mass as to produce not more than 2 mM deoxyadenosine. The cell mass suspension described above was kept at 30° C. for 1 hour without addition of methanol, and then the activity of PNP of the suspension was set at 100% of relative value. The results shown in Table 2 reveal that the activity of PNP was reduced minimally, but the activity of cdd was eliminated nearly completely.\n(§1) The cell mass suspension heat treated for 20 hours in Example 3 was processed with methanol in the same way as in Example 1. The individual activities of the cell mass suspension that was heat treated for 20 hours in Example 3 were set at 100% and the remaining activities were expressed with relative values. The results shown in Table 5 reveal that the activity of PNP was reduced minimally, but the activities of both cod and cdd were eliminated nearly completely."}, "cytidine deaminase (cdd)": {"target": "T2, cytidine deaminase (cdd) (Escherichia coli, UniProt P0ABF6)", "T2 construct": "endogenous in cells; host or cells: E. coli DH5alpha transformed with pUC-PNP73 (strain MT-10905), whole cell mass suspension", "T2 sequence (P0ABF6 whole entry)": "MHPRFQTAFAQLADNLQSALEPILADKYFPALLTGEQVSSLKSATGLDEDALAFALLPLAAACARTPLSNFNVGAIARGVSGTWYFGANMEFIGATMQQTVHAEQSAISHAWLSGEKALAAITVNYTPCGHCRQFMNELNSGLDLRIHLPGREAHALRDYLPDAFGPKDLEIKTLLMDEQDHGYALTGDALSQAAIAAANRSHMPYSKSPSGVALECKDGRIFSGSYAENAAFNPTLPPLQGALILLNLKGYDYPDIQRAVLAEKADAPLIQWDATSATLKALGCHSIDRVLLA", "assay": "cdd (cytidine deaminase) residual activity of MT-10905 cell mass suspension after processing with organic solvent", "format": "biochemical", "settings": "for cdd Activity: organic solvent 50%", "procedure": "To the cell mass suspension of the strain MT-10905 obtained in Reference Example 2 was added a certain amount of methanol so as to attain any one of the methanol concentrations listed in Table 2, and then the suspension was kept at 30° C. for 1 hour. Cytidine deaminase will be expressed as cdd hereafter. The activity of cdd was analyzed after the cell mass suspension was added to 1.0 ml of the reaction solution consisting of 100 mM tris hydrochloride buffer (pH 8.0) and 20 mM cytidine, and then treated at 50° C. for 2 hours.\nThe cell mass suspension described above was kept at 30° C. for 1 hour without addition of methanol, and then the activity of cdd of the suspension was set at 100% of relative value.\nas §1"}, "cytosine deaminase (cod)": {"test_system": "cytosine deaminase (cod)", "assay": "cod (cytosine deaminase) residual activity of heat treated MT-10905 cell mass suspension after processing with methanol", "format": "biochemical, Escherichia coli", "settings": "cells heat treated 60° C. 20 hours = 100%", "procedure": "The cell mass suspension of the strain MT-10905 obtained in Reference Example 2 was kept at 60° C. Cytosine deaminase will be expressed as cod hereafter. The activity of cod was analyzed after the cell mass suspension was added to 100 mM tris hydrochloride buffer (pH 8.0) and 20 mM cytosine, and then treated at 50° C. for 2 hours. The cod activity of the cell mass suspension that was not heat treated was set at 100% and the remaining activities were expressed with relative values. The results shown in Table 4 reveal that the activity of PNP was reduced minimally, but the activity of cod was eliminated nearly completely.\nas §1"}, "[2]": {"settings": "MeOH 10%, 30° C. 1 hour, no methanol = 100%"}, "[3]": {"settings": "MeOH 10%, cells heat treated 60° C. 20 hours = 100%"}, "[4]": {"settings": "MeOH 25%, 30° C. 1 hour, no methanol = 100%"}, "[5]": {"settings": "MeOH 25%, cells heat treated 60° C. 20 hours = 100%"}, "[6]": {"settings": "MeOH 50%, 30° C. 1 hour, no methanol = 100%"}, "[7]": {"settings": "MeOH 50%, cells heat treated 60° C. 20 hours = 100%"}, "[8]": {"settings": "MeOH 70%, 30° C. 1 hour, no methanol = 100%"}, "[9]": {"settings": "MeOH 70%, cells heat treated 60° C. 20 hours = 100%"}, "[10]": {"settings": "MeOH 90%, 30° C. 1 hour, no methanol = 100%"}, "[11]": {"settings": "MeOH 90%, cells heat treated 60° C. 20 hours = 100%"}}}
{"smiles": "CN1CCN(C)C1=O", "note": "[N,N-Dimethylimidazolidinone]", "values": [{"measurement": "PNP Activity", "setting": "[1]; 30° C. 1 hour", "value": 95, "unit": "%"}, {"measurement": "cdd Activity", "setting": "cytidine deaminase (cdd); 30° C. 1 hour", "value": 4, "unit": "%"}]}
{"smiles": "C[S+](C)[O-]", "note": "[Dimethyl Sulfoxide]", "values": [{"measurement": "PNP Activity", "setting": "[1]; 30° C. 1 hour", "value": 96, "unit": "%"}, {"measurement": "cdd Activity", "setting": "cytidine deaminase (cdd); 30° C. 1 hour", "value": 4, "unit": "%"}]}
{"smiles": "CO", "note": "[MeOH, methanol]", "values": [{"measurement": "PNP Residual Activity (%)", "setting": "[1]; [2]", "value": 100, "unit": "%"}, {"measurement": "PNP Residual Activity (%)", "setting": "[1]; [3]", "value": 100, "unit": "%"}, {"measurement": "PNP Residual Activity (%)", "setting": "[1]; [4]", "value": 99, "unit": "%"}, {"measurement": "PNP Residual Activity (%)", "setting": "[1]; [5]", "value": 98, "unit": "%"}, {"measurement": "PNP Residual Activity (%)", "setting": "[1]; [6]", "value": 98, "unit": "%"}, {"measurement": "PNP Residual Activity (%)", "setting": "[1]; [7]", "value": 96, "unit": "%"}, {"measurement": "PNP Residual Activity (%)", "setting": "[1]; [8]", "value": 97, "unit": "%"}, {"measurement": "PNP Residual Activity (%)", "setting": "[1]; [9]", "value": 96, "unit": "%"}, {"measurement": "PNP Residual Activity (%)", "setting": "[1]; [10]", "value": 97, "unit": "%"}, {"measurement": "PNP Residual Activity (%)", "setting": "[1]; [11]", "value": 96, "unit": "%"}, {"measurement": "cod Residual Activity (%)", "setting": "cytosine deaminase (cod); MeOH 10%", "value": 90, "unit": "%"}, {"measurement": "cod Residual Activity (%)", "setting": "cytosine deaminase (cod); MeOH 25%", "value": 80, "unit": "%"}, {"measurement": "cod Residual Activity (%)", "setting": "cytosine deaminase (cod); MeOH 50%", "value": 50, "unit": "%"}, {"measurement": "cod Residual Activity (%)", "setting": "cytosine deaminase (cod); MeOH 70%", "value": 30, "unit": "%"}, {"measurement": "cod Residual Activity (%)", "setting": "cytosine deaminase (cod); MeOH 90%", "value": 10, "unit": "%"}, {"measurement": "cdd Residual Activity (%)", "setting": "cytidine deaminase (cdd); [2]", "value": 80, "unit": "%"}, {"measurement": "cdd Residual Activity (%)", "setting": "cytidine deaminase (cdd); [3]", "value": 80, "unit": "%"}, {"measurement": "cdd Residual Activity (%)", "setting": "cytidine deaminase (cdd); [4]", "value": 50, "unit": "%"}, {"measurement": "cdd Residual Activity (%)", "setting": "cytidine deaminase (cdd); [5]", "value": 50, "unit": "%"}, {"measurement": "cdd Residual Activity (%)", "setting": "cytidine deaminase (cdd); [6]", "value": 10, "unit": "%"}, {"measurement": "cdd Residual Activity (%)", "setting": "cytidine deaminase (cdd); [7]", "value": 10, "unit": "%"}, {"measurement": "cdd Residual Activity (%)", "setting": "cytidine deaminase (cdd); [8]", "value": 0.5, "unit": "%"}, {"measurement": "cdd Residual Activity (%)", "setting": "cytidine deaminase (cdd); [9]", "value": 0.5, "unit": "%"}, {"measurement": "cdd Residual Activity (%)", "setting": "cytidine deaminase (cdd); [10]", "value": 0.1, "unit": "%"}, {"measurement": "cdd Residual Activity (%)", "setting": "cytidine deaminase (cdd); [11]", "value": 0.1, "unit": "%"}]}
{"smiles": "CN(C)C=O", "note": "[N,N-Dimethylformamide]", "values": [{"measurement": "PNP Activity", "setting": "[1]; 30° C. 1 hour", "value": 97, "unit": "%"}, {"measurement": "cdd Activity", "setting": "cytidine deaminase (cdd); 30° C. 1 hour", "value": 5, "unit": "%"}]}
